In article PMC9927415, “Tyrosine Kinase Inhibitors Display Potent Activity against Cryptosporidium parvum” (Microbiology Spectrum, 2022):

Key:
RPS6KA5(Kin.Dom.1) = biological target: T1, RPS6KA5(Kin.Dom.1) (Homo sapiens, UniProt O75582); test: KINOMEscan competitive binding; conditions: n=1, read-out: Percent inhibition, RPS6KA5(Kin.Dom.1)
T1 construct: RPS6KA5(Kin.Dom.1); purchased DiscoverX (KINOMEscan)

PCTK1 = biological target: T2, PCTK1 (Homo sapiens, UniProt Q00536); test: KINOMEscan competitive binding; conditions: n=1, read-out: Percent inhibition, PCTK1
T2 construct: purchased DiscoverX (KINOMEscan)

RET = biological target: T3, RET (Homo sapiens, UniProt P07949); test: KINOMEscan competitive binding; conditions: n=1, read-out: Percent inhibition, RET
T3 construct: purchased DiscoverX (KINOMEscan)

SRPK1 = biological target: T4, SRPK1 (Homo sapiens, UniProt Q96SB4); test: KINOMEscan competitive binding; conditions: n=1, read-out: Percent inhibition, SRPK1
T4 construct: purchased DiscoverX (KINOMEscan)

PKAC-beta = biological target: T5, PKAC-beta (Homo sapiens, UniProt P22694); test: KINOMEscan competitive binding; conditions: n=1, read-out: Percent inhibition, PKAC-beta
T5 construct: purchased DiscoverX (KINOMEscan)

Cryptosporidium parvum = test: In vitro C. parvum growth inhibition assay (Nluc reporter strain in HCT-8 cells); assay type: cell-based; conditions: 48 h; for EC50: mean of two independent experiments, dose response 10 nM to 10 μM, read-out: Cp EC50; for inhibition at 10 µM: primary screen, 10 μM compound, three technical replicates, read-out: Mean percent inhibition of C. parvum growth
Procedure: Host intestinal epithelial adenocarcinoma (HCT-8) cells were seeded into 96-well plates and grown to 70% confluence in RPMI medium supplemented with L-glutamine, 10% fetal bovine serum (FBS), 0.1 U/mL penicillin, 0.1 μg/mL streptomycin, 0.25 μg/mL amphotericin B and 1 mM sodium pyruvate. The host cell medium was aspirated and replaced with Cryptosporidium infection media (RPMI containing 2% FBS, 0.1 U/mL penicillin, 0.1 μg/mL streptomycin and 0.25 μg/mL amphotericin B) media prior to infection. The HCT-8 cells were infected with bleached and washed Nluc expressing C. parvum oocysts (2,000 oocysts per well) to which 10 μM compounds were added and plates were incubated for 48 h at 37°C, 5% CO2 and luminescence was measured using the protocol described previously ([14], [58]). […] Negative (no drug) and positive control (10 μM nitazoxanide) wells (three replicates each) were also set-up in the same plate. After the incubation, medium was removed and 100 μL of NanoGlo lysis buffer (Promega) was added to the wells followed by incubation for 15 min at 37°C, 5% CO2. The lysate was suspended by pipetting and 100 μL of NanoGlo lysis buffer containing 1:50 of NanoGlo substrate (Promega) was added to each well. […] For the dose response assay, compounds were tested in triplicate wells in two independent experiments and percent luminescence of no drug was calculated.
EC50 values were calculated using a nonlinear regression (curve fit of log-dose versus response) in GraphPad Prism version 8.

PKMYT1 = biological target: T6, PKMYT1 (Homo sapiens, UniProt Q99640); test: KINOMEscan competitive binding; conditions: n=1, read-out: Percent inhibition, PKMYT1
T6 construct: purchased DiscoverX (KINOMEscan)
T6 sequence (Q99640 1-499): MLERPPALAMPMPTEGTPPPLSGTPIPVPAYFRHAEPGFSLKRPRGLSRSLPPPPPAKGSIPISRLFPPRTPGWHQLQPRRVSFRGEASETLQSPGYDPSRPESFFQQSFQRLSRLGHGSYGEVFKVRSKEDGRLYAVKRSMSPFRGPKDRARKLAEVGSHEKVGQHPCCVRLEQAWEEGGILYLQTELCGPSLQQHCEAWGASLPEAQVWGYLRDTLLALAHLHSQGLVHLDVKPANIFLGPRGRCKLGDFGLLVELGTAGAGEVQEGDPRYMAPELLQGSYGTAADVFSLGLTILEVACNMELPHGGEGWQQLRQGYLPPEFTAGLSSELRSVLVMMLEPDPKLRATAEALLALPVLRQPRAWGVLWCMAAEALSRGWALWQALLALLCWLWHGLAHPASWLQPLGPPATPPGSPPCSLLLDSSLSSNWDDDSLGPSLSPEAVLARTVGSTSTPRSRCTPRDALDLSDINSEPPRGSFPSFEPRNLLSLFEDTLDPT

YSK1 = biological target: T7, YSK1 (Homo sapiens, UniProt O00506); test: KINOMEscan competitive binding; conditions: n=1, read-out: Percent inhibition, YSK1
T7 construct: purchased DiscoverX (KINOMEscan)

panel of 203 kinases [1] = biological target: T8, panel of 203 kinases (Homo sapiens, UniProt P53779); test: KINOMEscan competitive binding, whole panel; conditions: 10 µM, n=1; kinase JNK3; read-out: Percent inhibition JNK3
T8 construct: purchased DiscoverX (KINOMEscan)
Method in brief: (§1)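 First, kinases were produced as T7 bacteriophage fusion proteins. Then compounds were added to compete them off probe ligands immobilized on a solid support at the ATP site. Finally, bound kinase was measured and converted to percentage inhibition.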

panel of 203 kinases [2] = biological target: T9, panel of 203 kinases (Homo sapiens, UniProt Q9Y6E0); test: KINOMEscan competitive binding, whole panel; conditions: 10 µM, n=1; kinase MST3; read-out: Percent inhibition MST3
T9 construct: purchased DiscoverX (KINOMEscan)
Method in brief: as §1

panel of 203 kinases [3] = biological target: T10, panel of 203 kinases (Homo sapiens, UniProt P36894); test: KINOMEscan competitive binding, whole panel; conditions: 10 µM, n=1; kinase BMPR1A; read-out: Percent inhibition BMPR1A
T10 construct: purchased DiscoverX (KINOMEscan)
Method in brief: as §1

panel of 203 kinases [4] = biological target: T11, panel of 203 kinases (Homo sapiens, UniProt P29376); test: KINOMEscan competitive binding, whole panel; conditions: 10 µM, n=1; kinase LTK; read-out: Percent inhibition LTK
T11 construct: purchased DiscoverX (KINOMEscan)
Method in brief: as §1

panel of 203 kinases [5] = biological target: T12, panel of 203 kinases (Homo sapiens, UniProt Q8IU85); test: KINOMEscan competitive binding, whole panel; conditions: 10 µM, n=1; kinase CAMK1D; read-out: Percent inhibition CAMK1D
T12 construct: purchased DiscoverX (KINOMEscan)
Method in brief: as §1

panel of 203 kinases [6] = biological target: T13, panel of 203 kinases (Homo sapiens, UniProt Q9HBH9); test: KINOMEscan competitive binding, whole panel; conditions: 10 µM, n=1; kinase MKNK2; read-out: Percent inhibition MKNK2
T13 construct: purchased DiscoverX (KINOMEscan)
Method in brief: as §1

panel of 203 kinases [7] = biological target: T14, panel of 203 kinases (Homo sapiens, UniProt Q96RR4); test: KINOMEscan competitive binding, whole panel; conditions: 10 µM, n=1; kinase CAMKK2; read-out: Percent inhibition CAMKK2
T14 construct: purchased DiscoverX (KINOMEscan)
Method in brief: as §1

panel of 203 kinases [8] = biological target: T15, panel of 203 kinases (Homo sapiens, UniProt P53667); test: KINOMEscan competitive binding, whole panel; conditions: 10 µM, n=1; kinase LIMK1; read-out: Percent inhibition LIMK1
T15 construct: purchased DiscoverX (KINOMEscan)
Method in brief: as §1

PIM2 = biological target: T16, PIM2 (Homo sapiens, UniProt Q9P1W9); test: KINOMEscan competitive binding; conditions: n=1, read-out: Percent inhibition, PIM2
T16 construct: purchased DiscoverX (KINOMEscan)

TLK2 = biological target: T17, TLK2 (Homo sapiens, UniProt Q86UE8); test: KINOMEscan competitive binding; conditions: n=1, read-out: Percent inhibition, TLK2
T17 construct: purchased DiscoverX (KINOMEscan)

PAK1 = biological target: T18, PAK1 (Homo sapiens, UniProt Q13153); test: KINOMEscan competitive binding; conditions: n=1, read-out: Percent inhibition, PAK1
T18 construct: purchased DiscoverX (KINOMEscan)
T18 sequence (Q13153 whole entry): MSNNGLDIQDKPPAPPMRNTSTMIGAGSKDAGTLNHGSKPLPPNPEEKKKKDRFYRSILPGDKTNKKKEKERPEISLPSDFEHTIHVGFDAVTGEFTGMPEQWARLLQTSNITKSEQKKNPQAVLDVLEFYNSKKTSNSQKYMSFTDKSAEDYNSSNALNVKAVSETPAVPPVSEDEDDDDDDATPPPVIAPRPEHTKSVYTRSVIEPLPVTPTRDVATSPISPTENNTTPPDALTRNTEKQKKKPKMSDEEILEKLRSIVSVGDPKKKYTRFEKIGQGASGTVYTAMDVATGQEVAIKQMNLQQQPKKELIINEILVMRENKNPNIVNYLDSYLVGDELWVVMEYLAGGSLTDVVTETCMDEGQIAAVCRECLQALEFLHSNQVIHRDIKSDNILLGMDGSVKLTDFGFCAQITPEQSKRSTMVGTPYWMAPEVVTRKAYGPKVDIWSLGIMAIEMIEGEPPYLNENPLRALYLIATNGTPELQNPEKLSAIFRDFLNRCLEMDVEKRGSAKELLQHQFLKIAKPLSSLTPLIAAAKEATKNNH

T14 sequence (Q96RR4 whole entry): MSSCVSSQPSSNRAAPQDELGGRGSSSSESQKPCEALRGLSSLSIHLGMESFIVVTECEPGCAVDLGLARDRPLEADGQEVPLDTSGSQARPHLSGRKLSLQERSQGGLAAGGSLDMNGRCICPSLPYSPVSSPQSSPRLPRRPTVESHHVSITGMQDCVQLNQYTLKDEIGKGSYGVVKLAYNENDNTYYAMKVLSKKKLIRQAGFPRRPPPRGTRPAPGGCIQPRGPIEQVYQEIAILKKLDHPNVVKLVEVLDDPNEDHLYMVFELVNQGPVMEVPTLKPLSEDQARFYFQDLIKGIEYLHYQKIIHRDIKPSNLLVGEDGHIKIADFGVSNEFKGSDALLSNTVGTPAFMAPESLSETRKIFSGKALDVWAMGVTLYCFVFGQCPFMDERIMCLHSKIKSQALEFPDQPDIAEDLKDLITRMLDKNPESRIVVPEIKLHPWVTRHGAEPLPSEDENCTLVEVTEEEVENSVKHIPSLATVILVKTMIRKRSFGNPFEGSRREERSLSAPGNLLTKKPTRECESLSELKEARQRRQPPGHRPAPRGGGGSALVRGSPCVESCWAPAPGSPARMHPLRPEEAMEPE
T9 sequence (Q9Y6E0 whole entry): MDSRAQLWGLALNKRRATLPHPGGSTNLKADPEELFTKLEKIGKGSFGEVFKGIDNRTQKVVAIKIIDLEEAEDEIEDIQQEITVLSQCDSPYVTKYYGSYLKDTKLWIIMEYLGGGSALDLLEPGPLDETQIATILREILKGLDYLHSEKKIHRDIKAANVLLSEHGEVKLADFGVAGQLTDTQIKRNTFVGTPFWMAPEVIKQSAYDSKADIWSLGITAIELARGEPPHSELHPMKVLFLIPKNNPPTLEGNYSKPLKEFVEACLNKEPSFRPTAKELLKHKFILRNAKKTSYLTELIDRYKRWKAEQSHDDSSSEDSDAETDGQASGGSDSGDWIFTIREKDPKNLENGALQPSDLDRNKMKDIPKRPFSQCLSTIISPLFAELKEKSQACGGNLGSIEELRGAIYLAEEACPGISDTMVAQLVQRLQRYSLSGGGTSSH
T15 sequence (P53667 whole entry): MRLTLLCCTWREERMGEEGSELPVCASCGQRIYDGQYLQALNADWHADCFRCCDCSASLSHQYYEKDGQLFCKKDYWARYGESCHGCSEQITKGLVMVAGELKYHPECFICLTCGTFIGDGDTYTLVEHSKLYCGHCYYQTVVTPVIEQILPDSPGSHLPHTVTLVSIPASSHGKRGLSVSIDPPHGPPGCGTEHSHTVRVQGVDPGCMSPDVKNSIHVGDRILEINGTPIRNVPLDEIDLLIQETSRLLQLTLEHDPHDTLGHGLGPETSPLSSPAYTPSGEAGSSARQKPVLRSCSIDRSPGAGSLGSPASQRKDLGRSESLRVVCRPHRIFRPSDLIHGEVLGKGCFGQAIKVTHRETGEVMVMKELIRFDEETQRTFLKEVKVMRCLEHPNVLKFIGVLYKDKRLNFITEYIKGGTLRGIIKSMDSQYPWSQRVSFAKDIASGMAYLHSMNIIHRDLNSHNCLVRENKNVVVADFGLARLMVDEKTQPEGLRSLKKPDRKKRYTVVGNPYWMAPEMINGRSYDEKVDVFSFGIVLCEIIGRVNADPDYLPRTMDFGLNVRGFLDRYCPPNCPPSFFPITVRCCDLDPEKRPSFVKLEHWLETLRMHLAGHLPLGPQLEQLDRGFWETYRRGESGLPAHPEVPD
T11 sequence (P29376 17-864): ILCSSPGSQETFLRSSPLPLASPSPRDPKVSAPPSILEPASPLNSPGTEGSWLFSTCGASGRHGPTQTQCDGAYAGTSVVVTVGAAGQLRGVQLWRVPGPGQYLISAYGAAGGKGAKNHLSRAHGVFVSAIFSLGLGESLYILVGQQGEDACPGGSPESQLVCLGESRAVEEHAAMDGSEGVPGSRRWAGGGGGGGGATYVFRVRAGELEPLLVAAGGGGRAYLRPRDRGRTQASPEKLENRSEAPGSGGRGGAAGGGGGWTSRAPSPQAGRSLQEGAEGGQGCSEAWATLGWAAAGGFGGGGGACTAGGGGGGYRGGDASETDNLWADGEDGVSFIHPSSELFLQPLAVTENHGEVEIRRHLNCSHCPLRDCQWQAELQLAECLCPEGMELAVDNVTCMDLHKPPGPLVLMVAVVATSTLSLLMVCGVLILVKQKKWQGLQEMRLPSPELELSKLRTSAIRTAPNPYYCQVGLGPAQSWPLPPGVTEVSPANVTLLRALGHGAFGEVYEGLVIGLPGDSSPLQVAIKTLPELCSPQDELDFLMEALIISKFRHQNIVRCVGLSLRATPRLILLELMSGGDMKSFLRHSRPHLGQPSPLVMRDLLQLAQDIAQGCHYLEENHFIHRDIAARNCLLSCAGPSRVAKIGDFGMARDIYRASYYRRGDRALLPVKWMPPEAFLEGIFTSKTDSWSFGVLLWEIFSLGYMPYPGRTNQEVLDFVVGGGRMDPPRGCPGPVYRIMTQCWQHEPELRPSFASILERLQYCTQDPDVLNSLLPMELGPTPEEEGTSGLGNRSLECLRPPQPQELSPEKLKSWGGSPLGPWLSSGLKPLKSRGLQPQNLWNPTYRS
T4 sequence (Q96SB4 whole entry): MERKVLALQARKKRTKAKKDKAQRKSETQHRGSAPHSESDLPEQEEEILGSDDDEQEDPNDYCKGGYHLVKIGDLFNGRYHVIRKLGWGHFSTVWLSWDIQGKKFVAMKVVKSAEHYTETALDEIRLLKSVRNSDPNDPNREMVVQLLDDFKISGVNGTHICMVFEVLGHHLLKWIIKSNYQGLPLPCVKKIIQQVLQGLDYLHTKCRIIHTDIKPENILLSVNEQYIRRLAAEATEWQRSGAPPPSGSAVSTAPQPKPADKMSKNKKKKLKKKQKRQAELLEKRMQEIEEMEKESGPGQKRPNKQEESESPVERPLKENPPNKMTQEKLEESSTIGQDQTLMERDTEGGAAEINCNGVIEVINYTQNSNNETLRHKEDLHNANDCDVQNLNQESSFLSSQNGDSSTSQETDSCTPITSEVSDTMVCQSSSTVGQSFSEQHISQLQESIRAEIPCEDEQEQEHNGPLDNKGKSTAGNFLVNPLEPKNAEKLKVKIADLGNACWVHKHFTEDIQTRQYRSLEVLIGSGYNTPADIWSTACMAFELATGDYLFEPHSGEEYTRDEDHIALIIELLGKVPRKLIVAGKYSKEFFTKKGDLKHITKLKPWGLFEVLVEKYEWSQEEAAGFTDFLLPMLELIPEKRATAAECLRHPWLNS
T12 sequence (Q8IU85 whole entry): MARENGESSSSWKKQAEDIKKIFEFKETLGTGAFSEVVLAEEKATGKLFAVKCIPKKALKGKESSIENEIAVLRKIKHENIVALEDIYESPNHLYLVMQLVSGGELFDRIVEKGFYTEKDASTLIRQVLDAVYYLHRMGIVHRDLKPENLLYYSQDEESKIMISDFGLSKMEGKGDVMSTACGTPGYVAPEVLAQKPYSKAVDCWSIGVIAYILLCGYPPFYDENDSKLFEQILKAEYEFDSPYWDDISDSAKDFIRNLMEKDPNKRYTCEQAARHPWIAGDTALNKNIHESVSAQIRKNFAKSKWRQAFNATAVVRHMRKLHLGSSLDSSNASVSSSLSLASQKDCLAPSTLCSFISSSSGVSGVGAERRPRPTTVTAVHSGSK
T8 sequence (P53779 whole entry): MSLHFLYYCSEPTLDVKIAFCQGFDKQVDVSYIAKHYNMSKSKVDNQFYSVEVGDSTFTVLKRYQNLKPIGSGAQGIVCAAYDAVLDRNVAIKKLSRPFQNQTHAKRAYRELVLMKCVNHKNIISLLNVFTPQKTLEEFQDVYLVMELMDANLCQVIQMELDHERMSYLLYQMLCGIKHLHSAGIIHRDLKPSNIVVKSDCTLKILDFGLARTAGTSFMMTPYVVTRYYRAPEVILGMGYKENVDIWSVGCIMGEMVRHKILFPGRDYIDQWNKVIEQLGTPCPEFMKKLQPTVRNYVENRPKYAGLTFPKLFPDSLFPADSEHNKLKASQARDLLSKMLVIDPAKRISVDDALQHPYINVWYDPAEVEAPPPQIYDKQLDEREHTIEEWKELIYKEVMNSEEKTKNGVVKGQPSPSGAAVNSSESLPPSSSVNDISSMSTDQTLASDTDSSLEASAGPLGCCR
T16 sequence (Q9P1W9 whole entry): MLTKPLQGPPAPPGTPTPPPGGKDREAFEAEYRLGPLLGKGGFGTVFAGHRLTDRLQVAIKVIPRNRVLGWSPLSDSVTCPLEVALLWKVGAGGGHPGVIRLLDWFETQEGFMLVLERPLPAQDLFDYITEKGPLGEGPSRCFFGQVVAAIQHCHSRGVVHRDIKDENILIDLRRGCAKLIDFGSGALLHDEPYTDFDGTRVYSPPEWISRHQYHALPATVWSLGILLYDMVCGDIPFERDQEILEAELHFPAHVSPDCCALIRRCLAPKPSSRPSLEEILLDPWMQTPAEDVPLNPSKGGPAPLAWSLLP

Structure (SMILES) | inhibition at 10 µM (RPS6KA5(Kin.Dom.1)) | inhibition at 10 µM (PCTK1) | inhibition at 10 µM (RET) | inhibition at 10 µM (SRPK1) | inhibition at 10 µM (PKAC-beta) | EC50 (Cryptosporidium parvum) | inhibition at 10 µM (Cryptosporidium parvum) | inhibition at 10 µM (PKMYT1) | inhibition at 10 µM (YSK1) | inhibition at 10 µM (panel of 203 kinases [1]) | inhibition at 10 µM (panel of 203 kinases [2]) | inhibition at 10 µM (panel of 203 kinases [3]) | inhibition at 10 µM (panel of 203 kinases [4]) | inhibition at 10 µM (panel of 203 kinases [5]) | inhibition at 10 µM (panel of 203 kinases [6]) | inhibition at 10 µM (panel of 203 kinases [7]) | inhibition at 10 µM (panel of 203 kinases [8]) | inhibition at 10 µM (PIM2) | inhibition at 10 µM (TLK2) | inhibition at 10 µM (PAK1)
COc1cc(Nc2nccc(-c3sc(N)nc3-c3cccc(NC(=O)c4c(F)cccc4F)c3)n2)cc(OC)c1OC [Compound 7] | 97.4% | 0% | 100% | 0% | 0% | 180 nM | 90.9% | 0% | 96.3% | 100% | 93.8% | 0% | 0% | 91.8% | 100% | 0% | 100% | 0% | 0% | 99.8%
c1ccc(COc2cccc(-c3ccnc4[nH]ccc34)c2)cc1 [Compound 9] | 0% | 0% | 0% | 71.2% | 0% | 310 nM | 95.2% | 0% | 0% | 0% | 0% | 0% | 0% | 0% | 0% | 0% | 0% | 0% | 0% | 0%
